Experiments:
human iPLA2γ = target: T1, human iPLA2γ (Homo sapiens, UniProt Q9NP80); test: Inhibition by BEL of phospholipase A2 activity of iPLA2γ in membrane fractions of infected Sf9 cells; format: biochemical
T1 sequence (Q9NP80 1-782): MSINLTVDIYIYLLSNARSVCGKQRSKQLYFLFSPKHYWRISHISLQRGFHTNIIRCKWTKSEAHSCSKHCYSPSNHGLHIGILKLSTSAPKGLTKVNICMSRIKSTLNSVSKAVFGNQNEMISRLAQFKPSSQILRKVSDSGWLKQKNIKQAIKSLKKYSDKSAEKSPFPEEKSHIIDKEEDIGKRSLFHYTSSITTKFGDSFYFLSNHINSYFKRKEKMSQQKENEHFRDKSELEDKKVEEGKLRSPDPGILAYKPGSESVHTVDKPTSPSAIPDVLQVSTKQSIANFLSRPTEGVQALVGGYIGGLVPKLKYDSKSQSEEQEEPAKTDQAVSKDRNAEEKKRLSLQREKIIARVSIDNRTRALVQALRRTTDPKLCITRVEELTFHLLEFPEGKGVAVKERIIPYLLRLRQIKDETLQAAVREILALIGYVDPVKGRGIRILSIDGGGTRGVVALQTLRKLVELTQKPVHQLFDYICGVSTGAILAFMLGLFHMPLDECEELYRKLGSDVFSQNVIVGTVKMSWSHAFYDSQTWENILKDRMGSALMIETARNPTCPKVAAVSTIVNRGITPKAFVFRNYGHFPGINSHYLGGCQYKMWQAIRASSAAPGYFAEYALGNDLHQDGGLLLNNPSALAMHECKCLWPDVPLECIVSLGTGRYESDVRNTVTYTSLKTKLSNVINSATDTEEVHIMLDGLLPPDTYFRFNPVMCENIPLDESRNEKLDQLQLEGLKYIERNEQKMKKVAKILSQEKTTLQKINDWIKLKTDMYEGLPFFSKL
Protocol: Briefly, Sf9 cells were infected with either wild-type baculovirus or baculovirus encoding human iPLA2γ, as described in Example 5. Cytosolic and membrane fractions of the infected Sf9 cells were prepared as described above. Phospholipase A2 activity was assessed as follows. Membrane fractions from control cells or cells expressing iPLA2γ were incubated with 40 μM L-α-1-palmitoyl-2-[1-^14C]oleoyl phosphatidylcholine in 100 mM Tris-Hac, pH 8.0, containing 1 mM EGTA at 37° C. Aliquots of the reaction were removed at the indicated times, and the amount of [1-^14C]oleic acid released was quantified as described above. Specifically, the release of sn-2-fatty acid from glycero-3-phosphocholine was determined as a function of time.
Briefly, Sf9 cells were infected with either wild-type baculovirus or baculovirus encoding human iPLA2γ, as described in Example 5. Membrane fractions of the infected Sf9 cells were prepared as described above, and then incubated for three minutes at room temperature in 100 mM Tris-HAc, pH 8.0, containing lmM EGTA, with varying concentrations of BEL, or ethanol vehicle, as indicated along the x-axis. L-α-1-palmitoyl-2-[1-^14C]oleoyl phosphatidylcholine (40 μM final concentration) in ethanol was then added to each reaction, followed by incubation at 37° C. for two minutes. Released [1-^14C]oleic acid was quantitated as described above. […]

[1] = system: myocardial cytosolic and membrane-associated iPLA2; settings: irreversible mechanism-based inhibitor; Hazen et al. 1991, Zupan et al., Gross et al. 1993; cited from earlier work
[2] = target: T2, calcium-facilitated phospholipase A2γ (Homo sapiens, UniProt Q9UP65); settings: at <50 μM [BEL]; Jenkins et al. 2002; cited from earlier work
T2 sequence (Q9UP65 1-541): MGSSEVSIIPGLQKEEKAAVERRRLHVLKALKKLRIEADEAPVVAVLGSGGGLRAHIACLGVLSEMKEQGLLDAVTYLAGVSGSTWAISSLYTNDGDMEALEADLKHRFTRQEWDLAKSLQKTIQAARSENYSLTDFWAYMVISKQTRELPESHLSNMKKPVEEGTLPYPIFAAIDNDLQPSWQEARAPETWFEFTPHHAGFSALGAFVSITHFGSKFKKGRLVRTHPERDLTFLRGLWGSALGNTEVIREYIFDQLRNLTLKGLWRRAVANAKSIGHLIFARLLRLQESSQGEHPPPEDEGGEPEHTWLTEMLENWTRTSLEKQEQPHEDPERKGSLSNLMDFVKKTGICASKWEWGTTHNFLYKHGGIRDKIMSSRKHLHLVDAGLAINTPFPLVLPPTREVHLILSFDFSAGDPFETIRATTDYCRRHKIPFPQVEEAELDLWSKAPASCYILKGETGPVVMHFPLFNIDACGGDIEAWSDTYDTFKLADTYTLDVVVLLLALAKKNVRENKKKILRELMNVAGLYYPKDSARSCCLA

For `O=C1OC(=CBr)CCC1c1cccc2ccccc12` (stereo not shown) [BEL, (E)-6-(bromomethylene)-3-(1-napthalenyl)-2H-tetrahydropyran-2-one], the IC50 (human iPLA2γ) is listed as ~3 µM, the inhibition at 5 µM (human iPLA2γ; 5 μM BEL, preincubation of membranes for three minutes prior to addition of substrate (40 μM POPC), 37° C. two minutes) is listed as ~70% and the “concentrations giving nearly complete inhibition of myocardial cytosolic membrane-associated iPLA2” value [1] is listed as 2 to 5 µM. The “inhibition of calcium-facilitated phospholipase A2γ by BEL” value [2] was “not inhibited”.

From US20050003388A1, “Calcium independent phospholipase A2upsilon polynucleotides and polypeptides and methods therefor” (priority 2000, published 2005)
